The record followed here is patent US10174037B2, “Dihydropyrazolopyrimidinone compounds as PDE2 inhibitors” (Merck Sharp & Dohme Corp., priority 2015, dated 2019).

One test concerns the target Rhesus PDE2A3 (Macaca mulatta, UniProt B3VTJ2). In words: PDE2 fluorescence polarization (IMAP FP) assay, rhesus PDE2A3. It counts as biochemical, rhesus macaque. As to conditions: Lab B, read-out: Rhesus PDE2 Ki (nM) Lab B. On the technique in general: Polarisation of emitted light reports the rotation of a fluorescent probe.
For a further test, the target named is human PDE2A1 (Homo sapiens (Human), UniProt O00408). The test can be described thus: PDE selectivity IMAP FP assay, human PDE2A1. It counts as biochemical. As to conditions: Human PDE2; Lab B; read-out: Human PDE2 Ki (nM) Lab B. In short, it runs like this: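 IMAP fluorescence polarization assay; PDE2 substrate 50 nM FAM-cAMP containing 1000 nM cGMP, enzyme diluted for 20% substrate conversion, in 10 mM Tris HCl pH 7.2, 10 mM MgCl2, 1 mM DTT. Reaction 60 min at room temperature, stopped with IMAP binding solution; polarization read after 1 h. Ki reported.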
Sequence of human PDE2A1 (O00408 other isoform, or with tags, fused parts or gaps): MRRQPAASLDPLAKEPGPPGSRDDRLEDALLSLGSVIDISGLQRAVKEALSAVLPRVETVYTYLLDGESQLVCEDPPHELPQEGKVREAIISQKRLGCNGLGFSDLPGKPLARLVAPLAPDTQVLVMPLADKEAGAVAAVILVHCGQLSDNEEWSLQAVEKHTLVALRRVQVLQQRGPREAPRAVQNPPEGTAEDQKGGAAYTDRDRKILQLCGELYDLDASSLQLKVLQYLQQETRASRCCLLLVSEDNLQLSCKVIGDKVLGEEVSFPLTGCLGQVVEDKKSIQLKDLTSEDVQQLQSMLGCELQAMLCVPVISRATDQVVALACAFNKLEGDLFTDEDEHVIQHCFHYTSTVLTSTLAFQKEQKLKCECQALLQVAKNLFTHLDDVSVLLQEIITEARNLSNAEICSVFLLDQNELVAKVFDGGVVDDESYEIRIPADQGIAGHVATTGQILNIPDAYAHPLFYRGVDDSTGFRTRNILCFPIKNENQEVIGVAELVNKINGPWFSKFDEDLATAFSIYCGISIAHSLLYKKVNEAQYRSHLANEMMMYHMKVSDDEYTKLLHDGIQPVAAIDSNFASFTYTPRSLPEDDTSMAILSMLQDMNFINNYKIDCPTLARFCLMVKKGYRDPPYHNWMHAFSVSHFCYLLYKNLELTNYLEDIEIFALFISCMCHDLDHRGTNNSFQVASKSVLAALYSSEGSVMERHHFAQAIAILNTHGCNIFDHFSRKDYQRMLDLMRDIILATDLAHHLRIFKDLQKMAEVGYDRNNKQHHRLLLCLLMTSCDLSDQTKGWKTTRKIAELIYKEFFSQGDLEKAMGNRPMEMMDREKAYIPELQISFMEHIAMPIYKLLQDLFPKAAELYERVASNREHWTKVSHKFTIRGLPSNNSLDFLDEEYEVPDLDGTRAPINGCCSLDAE

Sequence of Rhesus PDE2A3 (B3VTJ2 1-941): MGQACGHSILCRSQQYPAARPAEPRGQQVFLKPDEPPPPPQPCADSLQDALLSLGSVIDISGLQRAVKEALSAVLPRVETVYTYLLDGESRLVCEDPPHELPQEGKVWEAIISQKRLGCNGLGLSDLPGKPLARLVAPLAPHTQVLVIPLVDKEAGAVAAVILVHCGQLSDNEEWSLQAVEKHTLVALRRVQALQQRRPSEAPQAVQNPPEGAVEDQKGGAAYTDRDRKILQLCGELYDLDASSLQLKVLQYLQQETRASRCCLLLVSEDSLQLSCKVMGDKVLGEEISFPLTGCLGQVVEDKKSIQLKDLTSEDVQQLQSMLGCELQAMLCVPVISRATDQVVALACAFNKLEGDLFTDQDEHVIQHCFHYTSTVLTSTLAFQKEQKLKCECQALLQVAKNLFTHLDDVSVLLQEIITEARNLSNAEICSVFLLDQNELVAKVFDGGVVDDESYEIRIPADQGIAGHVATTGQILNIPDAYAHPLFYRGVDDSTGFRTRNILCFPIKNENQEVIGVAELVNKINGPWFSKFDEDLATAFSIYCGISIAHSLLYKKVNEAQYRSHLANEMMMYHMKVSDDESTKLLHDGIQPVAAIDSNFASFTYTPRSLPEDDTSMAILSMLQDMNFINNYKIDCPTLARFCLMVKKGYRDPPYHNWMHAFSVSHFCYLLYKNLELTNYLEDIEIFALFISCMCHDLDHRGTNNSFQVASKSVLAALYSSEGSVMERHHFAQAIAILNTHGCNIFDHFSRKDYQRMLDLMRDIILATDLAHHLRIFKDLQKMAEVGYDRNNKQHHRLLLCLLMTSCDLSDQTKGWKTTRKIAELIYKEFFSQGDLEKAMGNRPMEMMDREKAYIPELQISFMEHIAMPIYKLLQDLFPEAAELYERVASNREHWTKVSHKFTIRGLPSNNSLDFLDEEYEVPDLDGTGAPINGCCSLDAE

The Ki is the equilibrium dissociation constant of an inhibitor or competing ligand from its target. In the case of `CC(c1ccc(C(C)(C)C)cc1)n1nc(CF)c2c(=O)[nH]c(N(C)C)nc21` (single isomer, unassigned) [Example 171, (S)- or (R)-1-(1-(4-tert-Butylphenyl)ethyl)-6-(dimethylamino)-3-(fluoromethyl)-1H-pyrazolo[3,4-d]pyrimidin-4(5H)-one], the results for the Ki at Rhesus PDE2A3 and at human PDE2A1 were 0.24 nM and 0.2 nM, respectively.

On to `CCC(c1ccc(C(F)(F)F)cc1)n1nc(CF)c2c(=O)[nH]c(N(C)C)nc21` (single isomer, unassigned) [Example 173, (S)- or (R)-6-(Dimethylamino)-3-(fluoromethyl)-1-(1-(4-(trifluoromethyl)phenyl)propyl)-1H-pyrazolo[3,4-d]pyrimidin-4(5H)-one], for which the Ki amounted to 0.096 nM on Rhesus PDE2A3 and 0.063 nM on human PDE2A1.

As for `CC(C)c1ccc(C(C(C)C)n2nc(CF)c3c(=O)[nH]c(N(C)C)nc32)cc1` (single isomer, unassigned) [Example 176, (R)- or (S)-6-(Dimethylamino)-3-(fluoromethyl)-1-(1-(4-isopropylphenyl)-2-methylpropyl)-1H-pyrazolo[3,4-d]pyrimidin-4(5H)-one], the Ki came to 0.28 nM at Rhesus PDE2A3 and 0.23 nM at human PDE2A1.

For `CC(C)c1ccc(C(C(C)C)n2nc(CF)c3c(=O)[nH]c(N(C)C)nc32)cc1` (single isomer, unassigned) [Example 177, (S)- or (R)-6-(Dimethylamino)-3-(fluoromethyl)-1-(1-(4-isopropylphenyl)-2-methylpropyl)-1H-pyrazolo[3,4-d]pyrimidin-4(5H)-one], the Ki was found to be 0.058 nM at Rhesus PDE2A3 and 0.047 nM on human PDE2A1.

For the compound `CN(C)c1nc2c(c(CF)nn2C(c2ccc(C(F)(F)F)cc2)C2CC2)c(=O)[nH]1` (single isomer, unassigned) [Example 179, (S)- or (R)-1-(Cyclopropyl(4-(trifluoromethyl)phenyl)methyl)-6-(dimethylamino)-3-(fluoromethyl)-1H-pyrazolo[3,4-d]pyrimidin-4(5H)-one], the Ki on Rhesus PDE2A3 and on human PDE2A1 was 0.072 nM each time.

For the compound `CN(C)c1nc2c(c(CF)nn2C(c2ccc(C(F)(F)F)c(F)c2)C2CC2)c(=O)[nH]1` (single isomer, unassigned) [Example 181, (S)- or (R)-1-(Cyclopropyl(3-fluoro-4-(trifluoromethyl)phenyl)methyl)-6-(dimethylamino)-3-(fluoromethyl)-1H-pyrazolo[3,4-d]pyrimidin-4(5H)-one], the Ki on Rhesus PDE2A3 was 0.11 nM; on human PDE2A1, 0.058 nM.

`CC(C)c1ccc(C(C2CC2)n2nc(CF)c3c(=O)[nH]c(N(C)C)nc32)cc1` (single isomer, unassigned) [Example 183, (R)- or (S)-1-(Cyclopropyl(4-isopropylphenyl)methyl)-6-(dimethylamino)-3-(fluoromethyl)-1H-pyrazolo[3,4-d]pyrimidin-4(5H)-one]: the results for the Ki at Rhesus PDE2A3 and on human PDE2A1 were 0.082 nM and 0.064 nM, respectively.

Take `CC(C)C(c1ccc(OC(F)F)cc1)n1nc(CF)c2c(=O)[nH]c(N(C)C)nc21` (single isomer, unassigned) [Example 184, (R)- or (S)-1-(1-(4-(Difluoromethoxy)phenyl)-2-methylpropyl)-6-(dimethylamino)-3-(fluoromethyl)-1H-pyrazolo[3,4-d]pyrimidin-4(5H)-one]: the Ki on Rhesus PDE2A3 turned out to be 0.24 nM; at human PDE2A1, 0.19 nM.

Regarding `CC(C)C(c1ccc(OC(F)F)cc1)n1nc(CF)c2c(=O)[nH]c(N(C)C)nc21` (single isomer, unassigned) [Example 185, (S)- or (R)-1-(1-(4-(Difluoromethoxy)phenyl)-2-methylpropyl)-6-(dimethylamino)-3-(fluoromethyl)-1H-pyrazolo[3,4-d]pyrimidin-4(5H)-one], the Ki on Rhesus PDE2A3 stood at 0.16 nM; on human PDE2A1, 0.12 nM.

With `CC(c1ccc(C(F)(F)F)cc1F)n1nc(CF)c2c(=O)[nH]c(N(C)C)nc21` (single isomer, unassigned) [Example 186, (R)- or (S)-6-(Dimethylamino)-1-(1-(2-fluoro-4-(trifluoromethyl)phenyl)ethyl)-3-(fluoromethyl)-1H-pyrazolo[3,4-d]pyrimidin-4(5H)-one], the inhibitory constant (Ki) on Rhesus PDE2A3 is 0.14 nM; on human PDE2A1, 0.13 nM.

As to `CN(C)c1nc2c(c(CF)nn2C(c2ccc(OC(F)F)c(F)c2)C2CC2)c(=O)[nH]1` (single isomer, unassigned) [Example 188, (R)- or (S)-1-(Cyclopropyl(4-(difluoromethoxy)-3-fluorophenyl)methyl)-6-(dimethylamino)-3-(fluoromethyl)-1H-pyrazolo[3,4-d]pyrimidin-4(5H)-one], the Ki at Rhesus PDE2A3 is 0.41 nM; at human PDE2A1, 0.35 nM.

With `CN(C)c1nc2c(c(CF)nn2C(c2ccc(OC(F)F)c(F)c2)C2CC2)c(=O)[nH]1` (single isomer, unassigned) [Example 189, (S)- or (R)-1-(Cyclopropyl(4-(difluoromethoxy)-3-fluorophenyl)methyl)-6-(dimethylamino)-3-(fluoromethyl)-1H-pyrazolo[3,4-d]pyrimidin-4(5H)-one], the Ki on Rhesus PDE2A3 came to 0.62 nM; at human PDE2A1, 0.35 nM.

As to `CC(c1ccc(C(F)F)cc1)n1nc(CF)c2c(=O)[nH]c(N(C)C)nc21` (single isomer, unassigned) [Example 191, (S)- or (R)-1-(1-(4-(Difluoromethyl)phenyl)ethyl)-6-(dimethylamino)-3-(fluoromethyl)-1H-pyrazolo[3,4-d]pyrimidin-4(5H)-one], the inhibition constant (Ki) turned out to be 0.42 nM at Rhesus PDE2A3 and 0.38 nM at human PDE2A1.

Take `CN(C)c1nc2c(c(CF)nn2C(c2ccc(CC(F)(F)F)cc2)C2CC2)c(=O)[nH]1` (single isomer, unassigned) [Example 192, (R)- or (S)-1-(Cyclopropyl(4-(2,2,2-trifluoroethyl)phenyl)methyl)-6-(dimethylamino)-3-(fluoromethyl)-1H-pyrazolo[3,4-d]pyrimidin-4(5H)-one]: the results for the Ki at Rhesus PDE2A3 and on human PDE2A1 were 0.42 nM and 0.41 nM, respectively.

On to `CN(C)c1nc2c(c(CF)nn2C(c2ccc(CC(F)(F)F)cc2)C2CC2)c(=O)[nH]1` (single isomer, unassigned) [Example 193, (S)- or (R)-1-(Cyclopropyl(4-(2,2.2-trifluoroethyl)phenyl)methyl)-6-(dimethylamino)-3-(fluoromethyl)-1H-pyrazolo[3,4-d]pyrimidin-4(5H)-one], for which the Ki is 0.41 nM at Rhesus PDE2A3 and 0.39 nM on human PDE2A1.

Consider `CC(c1ccc(C(C)(F)F)cc1)n1nc(CF)c2c(=O)[nH]c(N(C)C)nc21` (single isomer, unassigned) [Example 195, (S)- or (R)-1-(1-(4-(1,1-Difluoroethyl)phenyl)ethyl)-6-(dimethylamino)-3-(fluoromethyl)-1H-pyrazolo[3,4-d]pyrimidin-4(5H)-one], for which the Ki came out at 0.14 nM on Rhesus PDE2A3 and 0.17 nM at human PDE2A1.

On to `CC(c1ccc(C(F)F)c(F)c1)n1nc(CF)c2c(=O)[nH]c(N(C)C)nc21` (single isomer, unassigned) [Example 196, (R)- or (S)-1-(1-(4-(Difluoromethyl)-3-fluorophenyl)ethyl)-6-(dimethylamino)-3-(fluoromethyl)-1H-pyrazolo[3,4-d]pyrimidin-4(5H)-one], for which the Ki is 0.59 nM on Rhesus PDE2A3 and 0.31 nM on human PDE2A1.

Take `CCC(c1ccc(C(F)(F)F)cc1F)n1nc(CF)c2c(=O)[nH]c(N(C)C)nc21` (single isomer, unassigned) [Example 198, (R)- or (S)-6-(Dimethylamino)-1-(1-(2-fluoro-4-(trifluoromethyl)phenyl)propyl)-3-(fluoromethyl)-1H-pyrazolo[3,4-d]pyrimidin-4(5H)-one]: the values for the Ki at Rhesus PDE2A3 and on human PDE2A1 were 0.068 nM and 0.048 nM, respectively.

`CC(C)C(c1ccc(C(F)(F)F)cc1F)n1nc(CF)c2c(=O)[nH]c(N(C)C)nc21` (single isomer, unassigned) [Example 200, (R)- or (S)-6-(Dimethylamino)-1-(1-(2-fluoro-4-(trifluoromethyl)phenyl)-2-methylpropyl)-3-(fluoromethyl)-1H-pyrazolo[3,4-d]pyrimidin-4(5H)-one]: the Ki at Rhesus PDE2A3 was found to be 0.07 nM; on human PDE2A1, 0.041 nM.

In the case of `CN(C)c1nc2c(c(CF)nn2C(c2ccc(C(F)(F)F)cc2F)C2CC2)c(=O)[nH]1` (single isomer, unassigned) [Example 202, (R)- or (S)-1-(Cyclopropyl(2-fluoro-4-(trifluoromethyl)phenyl)methyl)-6-(dimethylamino)-3-(fluoromethyl)-1H-pyrazolo[3,4-d]pyrimidin-4(5H)-one], the Ki on Rhesus PDE2A3 is 0.058 nM; on human PDE2A1, 0.042 nM.

With `CN(C)c1nc2c(c(CF)nn2C(c2ccc(C(F)(F)F)cc2F)C2CC2)c(=O)[nH]1` (single isomer, unassigned) [Example 203, (S)- or (R)-1-(Cyclopropyl(2-fluoro-4-(trifluoromethyl)phenyl)methyl)-6-(dimethylamino)-3-(fluoromethyl)-1H-pyrazolo[3,4-d]pyrimidin-4(5H)-one], the Ki on Rhesus PDE2A3 amounted to 0.74 nM; on human PDE2A1 it was 0.61 nM.

As to `CCC(c1ccc(C(C)(F)F)cc1)n1nc(CF)c2c(=O)[nH]c(N(C)C)nc21` (single isomer, unassigned) [Example 205, (S)- or (R)-1-(1-(4-(1,1-Difluoroethyl)phenyl)propyl)-6-(dimethylamino)-3-(fluoromethyl)-1H-pyrazolo[3,4-d]pyrimidin-4(5H)-one], the Ki on Rhesus PDE2A3 came out at 0.072 nM; on human PDE2A1, 0.038 nM.

Regarding `CC(C)C(c1ccc(C(C)(F)F)cc1)n1nc(CF)c2c(=O)[nH]c(N(C)C)nc21` (single isomer, unassigned) [Example 206, (R)- or (S)-l-(1-(4-(1,1-Difluoroethyl)phenyl)-2-methylpropyl)-6-(dimethylamino)-3-(fluoromethyl)-1H-pyrazolo[3,4-d]pyrimidin-4(5H)-one], the Ki on Rhesus PDE2A3 is 0.51 nM; on human PDE2A1, 0.37 nM.
